Measurements: paper PMC2994776 (BMC Biochemistry, 2010)
Ends that are not written are not given here.

What was measured:
DnaK = biological target: T1, DnaK (Escherichia coli, UniProt P0A6Y8); assay: Fluid phase competition binding assay with acrylodan-labeled NR peptide (a-NR); design: species or system bacterial; conditions: read-out: Apparent dissociation equilibrium constant (K'd)
T1 construct: made in house
Description: Determination of dissociation equilibrium constants
Peptide NR was labeled with the environmentally sensitive fluorophore acrylodan as described. […] After reaching equilibrium (~1.5 h), emission spectra were recorded from 400 nm to 600 nm (bandpass 4 nm) with a Perkin-Elmer spectrofluorimeter LS50B equipped with a stirrer and a thermostatically controlled cuvette holder. The excitation wavelength was set at 370 nm (bandpass 4 nm). Measurements were performed in a volume of 800 μl in 25 mM Hepes/KOH, 100 mM KCl, 10 mM MgCl2, pH 7.4 containing 1 mM DTT and 1 mM ADP-Pi at 25°C.
(1) ΔF=ΔFmaxxP/(P+Kdx(1+L/K'd))

[1] = test system: B9-23 - reactive T-cell clones; conditions: type 1 diabetes; cited from earlier work

T1 sequence (P0A6Y8 whole entry): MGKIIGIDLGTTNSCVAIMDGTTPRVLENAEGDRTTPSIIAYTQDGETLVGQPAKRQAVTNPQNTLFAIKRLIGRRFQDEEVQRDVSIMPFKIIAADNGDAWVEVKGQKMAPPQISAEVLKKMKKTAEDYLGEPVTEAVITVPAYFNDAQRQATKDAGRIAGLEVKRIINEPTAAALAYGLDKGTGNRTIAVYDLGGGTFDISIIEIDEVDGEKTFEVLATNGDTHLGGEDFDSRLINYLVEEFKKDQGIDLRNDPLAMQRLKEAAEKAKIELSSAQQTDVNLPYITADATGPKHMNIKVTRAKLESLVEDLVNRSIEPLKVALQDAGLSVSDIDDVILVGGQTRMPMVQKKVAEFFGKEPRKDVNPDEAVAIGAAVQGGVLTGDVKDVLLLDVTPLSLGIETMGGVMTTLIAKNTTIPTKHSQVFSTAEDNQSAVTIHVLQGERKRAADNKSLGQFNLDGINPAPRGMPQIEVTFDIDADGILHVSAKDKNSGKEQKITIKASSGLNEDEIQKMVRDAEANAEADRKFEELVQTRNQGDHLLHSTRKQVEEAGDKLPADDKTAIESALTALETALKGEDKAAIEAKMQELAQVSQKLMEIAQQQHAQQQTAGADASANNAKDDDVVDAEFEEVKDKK

Substance | Kd (DnaK) [nM] | immunodominance in autoimmune T-cell reactivity (in words) [1]
SHAMAPVLYLQDK [Control peptide (sigma32 aa192-204)] | 500 ± 100 | 
LVEALYLVCGERG [Peptide B11-23] | 2200 ± 400 | 
VCGERGFFYTPKT [Peptide B18-30] | 51900 ± 12800 | 
B9-23: insulin peptide identified as an immunodominant epitope of autoimmune T-cell reactivity in type 1 diabetes (SHLVEALYLVCGERG; ends and bridges not checked; UniProt P01308 33-47, looked up, fragment) [Peptide B9-23] |  | immunodominant epitope of autoimmune T-cell reactivity in type 1 diabetes
